Measured values: patent US20100004325A1, “Use of Baicalein As Prolyl Hydroxylase 2 Inhibitor” (Korea Institute of Science and Technology, priority 2007, published 2010)
Where “and” joins values, the source holds several entries; their conditions need not be identical. Equal values may be shown once.

How the values were obtained:
PHD2 [1] = biological target: T1, PHD2 (Homo sapiens, UniProt Q9GZT9); experiment: Fluorescence polarization assay of PHD2-mediated hydroxylation of F-P564 peptide (binding to VBC protein); format: biochemical; conditions: proline hydroxylation 20 min, baicalein 0 to 200 μM, 500 nM VBC protein; read-out: concentration of baicalein that results in 50% inhibition of the PHD2 activity (IC50)
T1 construct: made in house; host or cells: E. coli BL21 (DE3), pGEX-4T-1
Procedure: In order to screen a PHD2 inhibitor, 1040 compounds having biological activities (NINDS Custom Collection II, MicroSource Discovery Systems) were used. First, 1 μl of each compound was aliquoted into a 1.5 ml tube at the final concentration of 20 μM. Then, GST-PHD2 (final concentration: 0.2-0.3 μg/μl) was mixed with the each compound, followed by adding a buffer (20 mM Tris-HCl, pH 8.0, 100 mM NaCl, 1 mM EDTA, 1 mM PMSF, 0.5% NP-40) thereto. […]
[…] After mixing at room temperature, the resulting mixture was transferred to a 96-well plate, and fluorescence polarization was measured by using VICTOR (Perkin-Elmer).
After obtaining the fluorescence polarization value of the mixture of the F-Hy564 peptide ([…]) in the buffer by VICTOR, the PHD2 inhibitory activity of each compound was represented in percentage based on that the fluorescence polarization value. 26 compounds with at least 60% of PHD2 inhibitory activity were randomly selected. […]
In order to examine the PHD2 inhibitory activity of baicalein, proline hydroxylation was performed for 20 min with increasing final concentrations of baicalein from 0 to 200 μM. […] Fluorescence polarization of the resulting mixture was measured by using a fluorometer (Perkin-Elmer), and the size of slit was 6 nm and the integration time was 5 sec.

[2] = system: HIF-1α binding to hypoxia-response element (HRE); experiment: p(HRE)4-luciferase reporter assay in HeLa cells; format: cell-based; conditions: 20 μM baicalein, 16 hours
Procedure: In order to examine the binding of the HIF-1α stabilized by baicalein in normoxia with HRE existed on a target gene, luciferase assay was conducted as follows. Specifically, HeLa cells (5×10^4 cells/well) were cultured on a 24-well plate, and 100 ng of p(HRE)4-luciferase plasmid and 50 ng of β-galactosidase expression vector, pCHO110, were co-transfected thereinto. As a control to 20 μM of baicalein, DFO (deferoxamine) and CoCl2 were added to the cells, respectively, and cultured for 16 hours. The cell extract was obtained, and the luciferase activity thereof was measured by luminometer (Tuner Designs).
The value was normalized for the β-galactosidase activity value and the total amount of protein measured by BCA protein analysis (Sigma).

VEGF [3] = experiment: VEGF mRNA expression in HepG2 cells, RT-PCR; format: cell-based; conditions: HepG2, normoxia
Procedure: In order to examine the expression of VEGF known as a representative target gene of the HIF-1α, RT-PCR was conducted as follows. In normoxia, DMSO was treated to HepG2 cells as a negative control, and its influence was observed. As a positive control, HepG2 cells were cultured in hypoxia for 16 hours. In order to amplify cDNA of VEGF mRNA expressed in the cell, the RNA of the cultured cell was subjected to RT-PCR by using forward primer (5′-ccatgaactttctgctdtctt-3′, SEQ ID NO: 5) and reverse primer (5′-[…]-3′, SEQ ID NO: 6). Further, in order to amplify cDNA of 18s rRNA, the RNA of the cultured cell was subjected to RT-PCR by using forward primer (5′-[…]-3′, SEQ ID NO: 7) and reverse primer (5′-[…]-3′, SEQ ID NO: 8) (Table 2).
The amplified product was subjected to electrophoresis on 1.5% agarose-gel, and the mRNA expression was quantitated by phosphoimager (Model Las3000, Fuji) (see FIG. 6a).

HIF-1α = HIF-1α protein expression in HepG2 cells, western blotting; format: cell-based; conditions: HepG2, normoxia, 6 hours; increase similar to HIF-1α in hypoxia
Procedure: In order to examine the change of the HIF-1α protein expression by baicalein in a cell, HepG2 strain was grown to 80% confluence on a 60 mm tissue culture plate. Baicalein with increasing concentrations was added to the cultured cell and further cultured in normoxia for 6 hours, and as controls, same cell mixtures were cultured in hypoxia. The cells were washed with 4° C. phosphate based saline buffer, and eluted with radioimmunoprecipitation analysis solution containing 150 mM NaCl, 1% Nonidet P-40, 0.5% deoxycholate, 0.1% SDS, 50 mM Tris (pH 7.4). 100 μg/ml PMSF, 10 μg/ml leupeptin, 1 μg/ml antipain, 10 μg/ml aprotinin, 50 mM β-glycerophosphate, 25 mM NaF, 20 mM EGTA, 1 mM DTT and 1 mM Na3VO4. Then, the cells were centrifuged, and the cell extracts thus obtained were quantified by Bradford protein assay. In order to perform the immunoblot against HIF-1α, 20 μg of the cell extract was suspended in SDS sample buffer, and heated in a water bath for 5 min to completely solublize the protein structure. […] The membrane was treated with ECL solution and exposed to X-ray film for 5 min, and finally the HIF-1α protein was detected, and subjected to luminescence image analyzer (Model LAS-3000, Fuji) for detailed analysis.

VEGF [4] = experiment: VEGF secretion by HeLa cells, ELISA; format: cell-based, human; conditions: 20 μM baicalein, 16 hours, compared with DMSO control
Procedure: In order to examine the secretion change of the VEGF protein known as a secretion protein synthesized in a cell, its cell culture solution was subjected to ELISA as follows. Specifically, HeLa cells aliquoted on a 24-well plate were cultured for 24-48 hour, and DMSO, CoCl2 (200 μM), DFO (125 μM) and baicalein (20 μM) were treated thereto, respectively. After culturing for 16 hours, the cell solution was recovered and centrifuged to separate supernatant. The supernatant was aliquoted on an antibody-coated well plate using human VEGF Quantikine ELISA kit (R&D Systems) to monitor the amount of VEGF in the supernatant. Then, an antibody for VEGF was treated to each well, followed by measuring the amount of the VEGF using luminometer.

12-lipoxygenase = conditions: Daotai et al., JBC 281; cited from earlier work
[5] = biological target: T2, F-HyP564 peptide / VBC protein (Homo sapiens, UniProt P40337); experiment: Fluorescence polarization of F-HyP564 peptide bound to VBC protein (counter-test); format: binding
T2 construct: made in house; host or cells: E. coli BL21 (DE3), co-expression of pGEX4T-VHL-EB and pDEV-EC (pET29b)

PHD2 [6] = biological target: T1, PHD2; experiment: Proline hydroxylation of B-P564 peptide by PHD2, MALDI mass spectrometry; format: biochemical; conditions: 800 μM baicalein, 1.4 μg/μl PHD2, 2 hours, room temperature
Procedure: For the analysis of proline hydroxylation, 800 μM of baicalein and 1.4 μg/μl of PHD2 were mixed in a buffer (20 mM Tris-HCl, pH 8.0, 100 mM NaCl, 1 mM EDTA, 1 mM PMSF, 0.5% NP-40) supplemented with ascorbic acid (final concentration: 400 μM) and α-ketoglutarate (final concentration: 100 μM). Then, 3 μM of the B-P564 peptide was added to the resulting mixture, and reacted at room temperature for 2 hours. Excess salts in the enzyme reactant were removed by ZipTipC18 (Millipore), and the eluted reactant was analyzed by MALDI mass spectrometry.

FIH1 = biological target: T3, FIH1 (Homo sapiens, UniProt Q9NWT6); experiment: Asparagine hydroxylation of F-N803 peptide by FIH1, MALDI mass spectrometry; format: biochemical; conditions: 20 μM baicalein, 0.55 μg/μl His-FIH1, 2 hours, room temperature
T3 construct: made in house; host or cells: E. coli BL21 (DE3), pET-28a
Procedure: Further, in order to examine the inhibitory activity of baicalein against FIH1, 20 μM of baicalein and 0.55 μg/μl of His-FIH1 were mixed in a buffer (50 mM Tris-HCl, pH 7.5, 5 mM KCl, 1.5 mM MgCl2) supplemented with ascorbic acid (final concentration: 400 μM) and α-ketoglutarate (final concentration: 100 μM). Then, 4 μM of the F-HIF-1α peptide containing the 788th-822nd amino acid was added to the resulting mixture, and reacted at room temperature for 2 hours. Excess salts in the reactant were removed by ZipTipC18, and the eluted reactant was analyzed by MALDI mass spectrometry.

IC50 (PHD2 [1]): ~15 µM and 15 µM | fluorescence polarization value of F-HyP564 peptide with VBC protein ([5]; baicalein at the highest concentration, 500 nM VBC protein): did not decrease | effect on interaction of F-HyP564 with the VBC protein (fluorescence polarization) ([5]; up to 20 μM of baicalein): did not affect | hydroxylation of the proline residue of B-P564 peptide (PHD2 [6]): not hydroxylated | hydroxylation of the asparagine residue of F-HIF-1α peptide (788th-822nd amino acid) (FIH1): not hydroxylated
SMILES: O=c1cc(-c2ccccc2)oc2cc(O)c(O)c(O)c12 [baicalein]
luciferase activity normalized for total protein amount [2]: a similar result was obtained | amount of the expressed VEGF (FIGS. 6a and 6b) (VEGF [3]): increases | concentration of baicalein at which HIF-1α protein expression increased (HIF-1α): more than 50 μM | amount of VEGF in the supernatant (VEGF [4]): significantly increase | activity of 12-lipoxygenase (12-lipoxygenase): inhibits
